Results: ChEMBL document CHEMBL4699565, “Computational modeling and target synthesis of monomethoxy-substituted o-diphenylisoxazoles with unexpectedly high antimitotic microtubule destabilizing activity” (Bioorg Med Chem Lett, 2020)

Legend:
Paracentrotus lividus [1] = experiment: Antimitotic activity against sea urchin embryo assessed as embryo spinning measured 2.5 to 6 hrs post-fertilization observed after 15 min to 20 hrs of treatment by light microscopy analysis; format: functional; details: time hrs 0.25-20
Paracentrotus lividus [2] = experiment: Antimitotic activity against sea urchin embryo assessed as cleavage alteration measured 2.5 to 6 hrs post-fertilization by light microscopy analysis; format: functional
Paracentrotus lividus [3] = experiment: Antimitotic activity against sea urchin embryo assessed as cleavage arrest measured 2.5 to 6 hrs post-fertilization by light microscopy analysis; format: functional; details: time hrs 2.5-6
Tubulin (Homo sapiens) = Tubulin (Homo sapiens) (UniProt P68371+Q9H4B7+P0DPH7+P68366+Q13509+Q71U36+P04350+Q3ZCM7+P07437+P68363+Q9BQE3+Q6PEY2+Q13885+Q9BVA1+Q9BUF5); experiment: Binding affinity to tubulin (unknown origin) assessed as change in gibbs free energy; format: protein-complex assay
Paracentrotus lividus [4] = experiment: Antimitotic activity against sea urchin embryo assessed as cleavage arrest by phase microscopy analysis; format: functional
[5] = system: Panel NCI-60 (60 carcinoma cell lines); experiment: Cytotoxicity against human NCI60 cells; format: functional
K562 = experiment: Cytotoxicity against human K562 cells; format: functional, cell-based
MDA-MB-435 = experiment: Cytotoxicity against human MDA MB 435 cells; format: functional

deltaG (Tubulin (Homo sapiens)) [kcal/mol]	Structure (SMILES)	EC (Paracentrotus lividus [1]) [µM]	EC (Paracentrotus lividus [2]) [µM]	EC (Paracentrotus lividus [3]) [µM]	EC (Paracentrotus lividus [4]) [µM]	GI50 [5] [nM]	IC50 (K562) [nM]	GI50 (MDA-MB-435) [nM]
–	COc1cc(-c2cc(-c3cccc(O)c3)cnc2N)cc(OC)c1OC	1	0.1	1	–	–	–	–
-10.9	COc1ccc(-c2nocc2-c2cc(OC)c(OC)c(OC)c2)cc1	–	–	–	–	–	–	–
-9.15	COc1ccc(-c2nocc2-c2ccccc2)cc1	2	0.2	2	–	–	–	–
–	COc1cc([C@@H]2c3cc4c(cc3[C@H](O)[C@H]3COC(=O)[C@H]23)OCO4)cc(OC)c1OC [PODOFILOX]	0.5	0.02	0.05	–	–	–	–
–	COc1cc2c(c(OC)c1OC)-c1ccc(OC)c(=O)cc1[C@@H](NC(C)=O)CC2 [COLCHICINE]	0.05	0.05	0.1	–	–	–	–
-11.9	COc1ccc(-c2cnoc2-c2ccccc2)cc1	0.1	0.002	0.02	–	–	–	–
–	COc1cc2c(c(OC)c1OC)-c1cc3c(cc1[C@H](OC(C)=O)[C@H]1COC(=O)[C@@H]1C2)OCO3 [(-)-STEGANACIN]	–	–	–	0.3	–	–	–
-11.3	COc1ccc(-c2conc2-c2ccccc2)cc1	0.1	0.005	0.05	–	457	47	26
-9.15	COc1ccc(-c2oncc2-c2ccccc2)cc1	>5	0.2	2	–	–	–	–

Structure (SMILES)	deltaG (Tubulin (Homo sapiens)) [kcal/mol]	EC (Paracentrotus lividus [1]) [µM]	EC (Paracentrotus lividus [2]) [µM]	EC (Paracentrotus lividus [3]) [µM]	EC (Paracentrotus lividus [4]) [µM]	GI50 [5] [nM]	IC50 (K562) [nM]	GI50 (MDA-MB-435) [nM]
COc1ccc(/C=C\c2cc(OC)c(OC)c(OC)c2)cc1O [COMBRETASTATIN A4]	-11.9	0.05	0.002	0.01	–	–	1	–
